From US9382568B2, “Determining the sensitivity of a cell to a drug” (RANDOX LABORATORIES LTD., priority 2008, dated 2016)

Columns and labels:
Escherichia coli = conditions: lacks dCK, deaminates Ara-C via cdd; cited from earlier work
AML [1] = experiment: Clinical outcome of AML patients (Ara-C used in induction therapy); assay type: in vivo, human; design: key: NR = No remission; CR = Complete remission
Protocol: The assay was evaluated using a KG-1a cell line and AML samples from patients with known response to Ara-C used in induction therapy. FIG. 6 depicts the light output from the lysate of the Ara-C sensitive cell line KG-1a treated with high (25 μM) Ara-C concentrations. […] The three day cytotoxicity test confirmed that KG-1a cells are sensitive to Ara-C.
The cell lysis assay was applied to clinical samples of peripheral blood ([…]) from AML patients. These preliminary assays, conducted on 7 clinical samples, gave 100% correlation with clinical response to therapy.

[2] = system: NCTC 13427 (lux+ cdd deficient E. coli MG 1655 expressing human dCK); experiment: Response of bioluminescent bacterial biosensor (growth OD600 and light output); assay type: cell-based
Text: (§1) Bacterial Strains, Plasmids and Growth Media. E. coli SØ5218 is a cdd-deficient strain expressing the human dCK cDNA on the IPTG-inducible pTrc99-A plasmid. E. coli MG1655 is a derivative of the wild-type E. coli K-12 with a requirement for pyrimidine in minimal medium, due to suboptimal expression of the orotate phosphoribosyltransferase gene coded for by pyrE. Both strains were made self-bioluminescent by transforming them with the broad-host vector pBBR1MCS-2 carrying the luxCDABE cassette from Photorhabdus luminescens as an EcoRI PCR fragment. Luria-Bertani (LB) medium was used for routine culturing of bacteria. The antibiotics ampicillin (to maintain pTrc-A) and kanamycin (to maintain pBBR1MCS-2) were added at 100 and 10 μg/ml, respectively. Growth inhibition experiments were performed in LB RPMI 1640 or in minimal salt medium (AB) plus 0.2% glucose, 0.2% vitamin-free casamino acids and supplemented with thiamine and leucine.
Construction of a cdd-deficient strain of E. coli MG 1655. A library of E. coli MG 1655 strains was constructed using transposition mutagenesis with P1 phage carrying the Tn10 transposon. Mutants carrying the transposon were selected for by plating on tetracycline (10 μg/ml) agar plates and cdd mutants were selected for by plating on to plates containing 10 μg/ml of the analogue 5-fluoro-2′ deoxycytidine which is toxic to E. coli expressing cdd. The phenotype of cdd mutants was confirmed by the absence of cytidine deaminase activity.
In order to measure Ara-C response in a nutrient rich intracellular environment, an alternative cdd-deficient strain of a bioluminescent E. coli MG1655 mutant was constructed using transposon mutagenesis, which was further transformed with pTrc99-A, to give IPTG inducible expression of dCK. […] One possible explanation for the light increase is that the DNA damage caused by Ara-CTP induces bioluminescence that could be used in DNA repair by a photo-reactivation process.
In order to increase the specificity of the proposed assay, direct effects of the active intracellular drug derivative, Ara-CTP, on the bacterial biosensor were monitored (FIG. 3A). […] To verify this, the assay was repeated with the addition of alkaline phosphatase at the start.

E. coli SØ5218 [3] = conditions: upon expression of human dCK gene (IPTG), Wang et al. 1998; cited from earlier work
KG-1a cells [4] = experiment: Cell Titer-Glo luminescent cell viability (three day cytotoxicity) assay, cell line; assay type: cell-based; conditions: 25 μM Ara-C, 72 hours
Protocol: (§2) Cell lines, bone marrow and blood samples. The monocytic cell line KG-1a (DSMZ, Germany) was grown and maintained as a cell suspension in RPMI 1640 medium supplemented with 2 mM L-glutamine and 10% foetal calf serum. Mononuclear cell fractions were isolated from patient peripheral blood or bone marrow samples (n=8) using density gradient centrifugation (SG […]) followed by resuspension in RPMI 1640 medium prior to incubation with Ara-C. Cryopreserved bone marrow samples were thawed and re-suspended in RPMI 1640 medium prior to drug exposure.
(§3) Cell Lysis Assay. AML cell lines or patient derived samples were treated with 25 μM Ara-C for 90 min at 37° C. and 5% CO2, harvested, washed and resuspended in fresh RPMI 1640 medium. EDTA and saponin were added to final concentrations of 1.5 mM and 0.1%, respectively. Samples were then vortexed for 30 sec and cell debris were removed by centrifugation at 1027 g for 5 min. Samples from the lysate or supernatant were mixed with reporter bacteria, 1 mM of IPTG an 10 units of alkaline phosphatase. Bioluminescence and growth (OD600) of the bacteria were monitored in a multimode microplate reader. Sensitivity of AML cell lines or patient derived samples to Ara-C was also assayed using Cell Titer-Glo® Luminescent Cell Viability Assay kit (Promega). […]

[5] = system: AML patient derived samples; experiment: Cell lysis assay with bioluminescent reporter bacteria, patient samples; assay type: cell-based, human; conditions: for Bioluminescent Assay (sensitive): 25 μM Ara-C 90 min; for Treatment % difference in peak RLU a) L:LI / Treatment % difference in peak RLU b) L:LIP / Treatment % difference in peak RLU c) LI:LIP: drug treated minus control
Protocol: as §2
(§4) Cell Lysis Assay. AML cell lines or patient derived samples were treated with 25 μM Ara-C for 90 min at 37° C. and 5% CO2, harvested, washed and resuspended in fresh RPMI 1640 medium. EDTA and saponin were added to final concentrations of 1.5 mM and 0.1%, respectively. Samples were then vortexed for 30 sec and cell debris were removed by centrifugation at 1027 g for 5 min. Samples from the lysate or supernatant were mixed with reporter bacteria, 1 mM of IPTG an 10 units of alkaline phosphatase. Bioluminescence and growth (OD600) of the bacteria were monitored in a multimode microplate reader. Sensitivity of AML cell lines or patient derived samples to Ara-C was also assayed using Cell Titer-Glo® Luminescent Cell Viability Assay kit (Promega). Samples were treated with 25 μM Ara-C for 72 hours at 37° C. and 5% CO2 before measuring intracellular levels of ATP according to manufacturer's instructions. Paired t-tests were used to analyse significant differences in bioluminescence output between control and treated assay samples.
A representation of light output during the bioluminescent assay for patients who are metabolic sensitive, metabolic resistant, metabolic partially resistant and uptake resistant is shown in FIG. 5.
Table 3 validates the application of the bioluminescent assay using relative percentage differences in peak light output from the various treatments to identify resistant and sensitive patients. Data shown in Table 3 is computed according to the equation {[RLU drug treated sample (LIP/LI)−RLU control (LIP/LI)]×100}, using c) as an example.

[6] = system: AML patient derived samples; experiment: Cell Titer-Glo luminescent cell viability (cytotox) assay, patient samples; assay type: cell-based, human; conditions: 25 μM Ara-C 72 hours
Protocol: as §2, §4

E. coli SØ5218 [7] = experiment: Growth of cdd-deficient E. coli mutant SØ5218 expressing human dCK; assay type: cell-based; conditions: rich growth medium (data not shown)
Text: Ara-C has no effect on Escherichia coli as it lacks dCK and deaminates Ara-C into Ara-uracil through the activity of deoxycytidine deaminase (cdd). Wang et al., Antimicrob. Agents. […] The Ara-C effect on growth was completely abolished when assayed in the absence of the dCK inducible […], IPTG, indicating human dCK expression in the bacteria leads to Ara-CTP incorporation into bacterial DNA.
as §1, with “leucine. […]” for “leucine.”

AML [8] = experiment: Clinical outcome of AML patients (Ara-C used in induction therapy); assay type: in vivo, human; design: key: NR = No remission; CR = Complete remission; conditions: Table 2 patient 4, diagnosis M4
KG-1a cells [9] = experiment: Cell lysis assay with bioluminescent reporter bacteria, cell line; assay type: cell-based; conditions: KG-1a treated with 25 μM Ara-C, p=0.0001
Protocol: as §2, §3

[10] = Table 2 patient 1, diagnosis M2
[11] = Table 2 patient 2, diagnosis M4
[12] = Table 2 patient 3, diagnosis M2
[13] = Table 2 patient 5, diagnosis M4
[14] = Table 2 patient 6, diagnosis M0
[15] = Table 2 patient 4, diagnosis M4
[16] = Table 2 patient 7, diagnosis M3

Nc1ccn([C@@H]2O[C@H](CO)[C@@H](O)[C@@H]2O)c(=O)n1 [Ara-C]
effect on Escherichia coli (Escherichia coli): no effect
Clinical Outcome (AML [1]; [10]): NR
Clinical Outcome (AML [1]; [11]): CR
Clinical Outcome (AML [1]; [12]): NR
Clinical Outcome (AML [1]; [13]): NR
Clinical Outcome (AML [1]; [14]): NR
Clinical Outcome (AML [1]; Table 2 patient 7, diagnosis M3 (Remission, death)): Remission
Clinical Outcome (AML [1]; Table 3 patient 1): sensitive
Clinical Outcome (AML [1]; Table 3 patient 2): sensitive
Clinical Outcome (AML [1]; Table 3 patient 3): resistant
Clinical Outcome (AML [1]; Table 3 patient 7): resistant
light output (bioluminescence, RLU) of reporter strain ([2]; drug-treated cultures, IPTG present, p=0.0001): significant increase in light output
growth (OD600) of reporter strain ([2]; in the presence of Ara-C, induced by IPTG, nutrient rich medium): reduced growth
lowest concentration the bacterial biosensor responds to ([2]; low concentrations of Ara-C, FIG. 2): 0.05 µM
relative growth of SØ5218 (E. coli SØ5218 [3]): reduced relative growth
three day cytotoxicity test (KG-1a cells [4]): sensitive
Bioluminescent Assay (sensitive) [5, 10]: No
Bioluminescent Assay (sensitive) [5, 11]: Yes
Bioluminescent Assay (sensitive) [5, 12]: No
Bioluminescent Assay (sensitive) [5, 15]: Yes
Bioluminescent Assay (sensitive) [5, 13]: No
Bioluminescent Assay (sensitive) [5, 14]: No
Bioluminescent Assay (sensitive) [5, 16]: No
interaction of the drug with the patient sample (uptake and metabolism category) ([5]; Table 3 patient 1): take up and metabolise the drug
Treatment % difference in peak RLU a) L:LI ([5]; Table 3 patient 1): −10.25%
Treatment % difference in peak RLU b) L:LIP ([5]; Table 3 patient 1): 19.20%
Treatment % difference in peak RLU c) LI:LIP ([5]; Table 3 patient 1): 24.19%
interaction of the drug with the patient sample (uptake and metabolism category) ([5]; Table 3 patient 2): take up and metabolise the drug
Treatment % difference in peak RLU a) L:LI ([5]; Table 3 patient 2): −4.00%
Treatment % difference in peak RLU b) L:LIP ([5]; Table 3 patient 2): 62.40%
Treatment % difference in peak RLU c) LI:LIP ([5]; Table 3 patient 2): 48.03%
interaction of the drug with the patient sample (uptake and metabolism category) ([5]; Table 3 patient 3): takes up but does not metabolise the drug
Treatment % difference in peak RLU a) L:LI ([5]; Table 3 patient 3): −81.04%
Treatment % difference in peak RLU b) L:LIP ([5]; Table 3 patient 3): −120.00%
Treatment % difference in peak RLU c) LI:LIP ([5]; Table 3 patient 3): −4.51%
interaction of the drug with the patient sample (uptake and metabolism category) ([5]; Table 3 patient 4, not clinically confirmed): resistant to take up of the drug
Treatment % difference in peak RLU a) L:LI ([5]; Table 3 patient 4): 2.28%
Treatment % difference in peak RLU b) L:LIP ([5]; Table 3 patient 4): 3.28%
Treatment % difference in peak RLU c) LI:LIP ([5]; Table 3 patient 4): 0.88%
Treatment % difference in peak RLU a) L:LI ([5]; Table 3 patient 5): −61.46%
Treatment % difference in peak RLU b) L:LIP ([5]; Table 3 patient 5): −98.39%
Treatment % difference in peak RLU c) LI:LIP ([5]; Table 3 patient 5): −13.87%
Treatment % difference in peak RLU a) L:LI ([5]; Table 3 patient 6): −13.59%
Treatment % difference in peak RLU b) L:LIP ([5]; Table 3 patient 6): −7.03%
Treatment % difference in peak RLU c) LI:LIP ([5]; Table 3 patient 6): 5.50%
Treatment % difference in peak RLU a) L:LI ([5]; Table 3 patient 7): −16.37%
Treatment % difference in peak RLU b) L:LIP ([5]; Table 3 patient 7): −16.37%
Treatment % difference in peak RLU c) LI:LIP ([5]; Table 3 patient 7): 1.20%
Cytotox Assay (DLO) [6, 10]: 84%
Cytotox Assay (DLO) [6, 11]: 99%
Cytotox Assay (DLO) [6, 12]: 79%
Cytotox Assay (DLO) [6, 15]: 99%
Cytotox Assay (DLO) [6, 13]: 62%
Cytotox Assay (DLO) [6, 14]: 5%
Cytotox Assay (DLO) [6, 16]: 91%
response of SØ5218 (E. coli SØ5218 [7]): did not respond
Clinical Outcome (AML [8]): CR
light output from IPTG-induced lysate with BAP (KG-1a cells [9]): significant increase in the light output
light output from IPTG-induced lysate without BAP (KG-1a cells [9]): significant increase in the light output

Nc1ccn([C@@H]2O[C@H](COP(=O)(O)OP(=O)(O)OP(=O)(O)O)[C@@H](O)[C@@H]2O)c(=O)n1 [Ara-CTP]
direct entry into reporter bacteria ([2]; Ara-CTP added without alkaline phosphatase, FIG. 3A): does not directly enter reporter bacteria
time after which increase in light output was evident ([2]; alkaline phosphatase added at the start, FIG. 3B): 3 to 5 h
time of growth after which increase in light output was observed ([2]; no alkaline phosphatase added): at least 15 h
